Experimental data from BindingDB's records for doi:10.1021/cb4002602 (National University of Singapore, 2013).

Biological target: Protein disulfide-isomerase (Bos taurus) (UniProt P05307)
Assay: The assay was carried out in 384-well plates according to literature procedures [46]. Each well contained 100mM sodium phosphate and 0.2mM EDTA pH 7.0. 10ng PDI was pre-incubated with various concentration of probes (4% DMSO) in 20uL buffer for 30 min at 37 degrees Celsius, followed by the addition of insulin (0.16mM final concentration) and DDT (1mM

Protein disulfide-isomerase (Bos taurus), sequence (P05307 whole entry, looked up): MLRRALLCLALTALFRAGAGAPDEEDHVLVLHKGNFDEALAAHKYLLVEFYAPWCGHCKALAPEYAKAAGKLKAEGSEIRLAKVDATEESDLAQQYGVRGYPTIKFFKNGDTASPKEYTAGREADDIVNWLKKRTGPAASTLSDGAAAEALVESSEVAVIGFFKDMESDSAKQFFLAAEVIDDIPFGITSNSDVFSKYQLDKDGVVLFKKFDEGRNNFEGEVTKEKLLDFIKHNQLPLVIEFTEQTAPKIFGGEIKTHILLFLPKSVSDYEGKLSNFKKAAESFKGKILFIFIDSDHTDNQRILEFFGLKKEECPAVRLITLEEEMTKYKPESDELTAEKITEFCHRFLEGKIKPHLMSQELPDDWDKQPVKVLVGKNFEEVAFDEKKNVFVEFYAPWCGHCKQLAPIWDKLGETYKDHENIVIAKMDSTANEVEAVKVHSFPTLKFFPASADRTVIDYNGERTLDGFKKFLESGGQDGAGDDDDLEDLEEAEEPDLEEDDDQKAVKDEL

C#CCNC(=O)[C@H](Cc1ccc(OS(=O)(=O)C=C)cc1)NC(=O)c1ccc2ccccc2c1 [PDI inhibitor P8] was tested. Which IC50 did it give?
The IC50 was 2.7 µM.

For C#CCNC(=O)[C@H](Cc1ccc(OS(=O)(=O)C=C)cc1)NC(=O)C(C)(C)CC [PDI inhibitor P12], which IC50 is on record?
Its IC50 is 3.2 µM.

For C#CCNC(=O)[C@H](Cc1ccc(OS(=O)(=O)C=C)cc1)NC(=O)C(Cl)CC (stereo partly drawn) [PDI inhibitor P20], which IC50 is on record?
Its IC50 is 5.7 µM.

C#CCNC(=O)[C@H](Cc1ccc(OS(=O)(=O)C=C)cc1)NC(=O)c1cc(F)c(F)c(OC)c1F [PDI inhibitor P22] was tested. Which IC50 did it give?
The IC50 was 1.4 µM.

For C#CCNC(=O)[C@H](Cc1ccc(OS(=O)(=O)C=C)cc1)NC(=O)[C@H](Cc1ccccc1)NC(=O)OC(C)(C)C [PDI inhibitor P6], which IC50 is on record?
Its IC50 is 1.9 µM.

C#CCNC(=O)[C@H](Cc1ccc(OS(=O)(=O)C=C)cc1)NC(=O)c1ccc(C)cc1C [PDI inhibitor P7] was tested. Which IC50 did it give?
The IC50 was 3.1 µM.

How did the IC50 turn out when C#CCNC(=O)[C@H](Cc1ccc(OS(=O)(=O)C=C)cc1)NC(=O)CCc1ccc(OC)cc1 [PDI inhibitor P17] was run?
Its IC50 is 3.3 µM.

With C#CCNC(=O)[C@H](Cc1ccc(OS(=O)(=O)C=C)cc1)NC(=O)c1c(F)c(F)c(F)c(F)c1F [PDI inhibitor P13] as the compound, how does the IC50 read?
The IC50 was 2.5 µM.

Which IC50 does the source give for C#CCCNC(=O)[C@H](Cc1cc(=O)oc2cc(OS(=O)(=O)C=C)ccc12)NC(=O)[C@H](Cc1ccccc1)NC(=O)OC(C)(C)C [PDI inhibitor P2] here?
The IC50 was 1.8 µM.

C#CCNC(=O)[C@H](Cc1ccc(OS(=O)(=O)C=C)cc1)NC(=O)c1ccc(F)cc1Cl [PDI inhibitor P18] was tested. Which IC50 did it give?
Its IC50 is 2.8 µM.

Which IC50 does the source give for C#CCNC(=O)[C@H](Cc1ccc(OS(=O)(=O)C=C)cc1)NC(=O)c1ccc(CC)cc1 [PDI inhibitor P15] here?
The IC50 was 1.1 µM.

For C#CCCNC(=O)[C@H](Cc1ccc(OS(=O)(=O)C=C)cc1)NC(=O)[C@H](Cc1ccccc1)NC(=O)OC(C)(C)C [PDI inhibitor P1], which IC50 is on record?
Its IC50 is 1.7 µM.

C#CCNC(=O)[C@H](Cc1ccc(OS(=O)(=O)C=C)cc1)NC(=O)C1(C)CC1(Cl)Cl (stereo partly drawn) [PDI inhibitor P19] was tested. Which IC50 did it give?
Its IC50 is 2.5 µM.

Which IC50 does the source give for C#CCNC(=O)[C@H](Cc1ccc(OS(=O)(=O)C=C)cc1)NC(=O)CCc1ccccc1 [PDI inhibitor P24] here?
Its IC50 is 2.2 µM.

With C#CCNC(=O)[C@H](Cc1ccc(OS(=O)(=O)C=C)cc1)NC(=O)c1cc(OC)c(OC)cc1Br [PDI inhibitor P25] as the compound, how does the IC50 read?
Its IC50 is 3.4 µM.

With C#CCNC(=O)[C@H](Cc1ccc(OS(=O)(=O)C=C)cc1)NC(=O)c1ccc(F)c(C(F)(F)F)c1 [PDI inhibitor P14] as the compound, how does the IC50 read?
Its IC50 is 1 µM.

C=CS(=O)(=O)Oc1ccc(C[C@H](NC(=O)[C@H](Cc2ccccc2)NC(=O)OC(C)(C)C)C(=O)NCCNC(=O)CCCC[C@@H]2SCC3NC(=O)NC32)cc1 (stereo partly drawn) [PDI inhibitor P11] was tested. Which IC50 did it give?
The IC50 was 1.1 µM.

C#CCNC(=O)[C@H](Cc1ccc(OS(=O)(=O)C=C)cc1)NC(=O)C1(c2ccccc2)CC1 [PDI inhibitor P10] was tested. Which IC50 did it give?
The IC50 was 2.1 µM.

For C#CCNC(=O)[C@H](Cc1ccc(OS(=O)(=O)C=C)cc1)NC(=O)c1ccc(C)c(F)c1 [PDI inhibitor P21], which IC50 is on record?
The IC50 was 2.5 µM.

Which IC50 does the source give for C#CCNC(=O)[C@H](Cc1ccc(OS(=O)(=O)C=C)cc1)NC(=O)C(=O)c1ccccc1 [PDI inhibitor P23] here?
Its IC50 is 1.8 µM.

For C#CCNC(=O)[C@H](Cc1ccc(OS(=O)(=O)C=C)cc1)NC(=O)c1ccc(OC)cc1 [PDI inhibitor P9], which IC50 is on record?
Its IC50 is 5.3 µM.

C#CCNC(=O)[C@H](Cc1ccc(OS(=O)(=O)C=C)cc1)NC(=O)C1(C)CCCCC1 [PDI inhibitor P16] was tested. Which IC50 did it give?
The IC50 was 2.3 µM.

How did the IC50 turn out when COC(=O)C1(C)c2[nH]c3ccccc3c2CCN1C(=O)CCl (stereo not drawn) [16F16] was run?
The IC50 was 74 µM.
